Data: the supplement of paper PMC4862054

Key:
Conditions in all cases: incubation time: 72 h
MDA-MB-453 [1] = experiment: normalised response (% of control), CellTiter-Glo; higher = more viable cells (100 = DMSO, 0 = benzethonium chloride kill control)
Procedure: (§1)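 DSRT, 72 h incubation, CellTox Green / CellTiter-Glo readout. Signal is normalised to DMSO and benzethonium chloride controls. Value is the normalised response at dose 3.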

HCC1599 [2] = experiment: as above
Procedure: as §1

BT-549 [3] = experiment: as above
Procedure: as §1

MCF-10A [4] = experiment: as above
Procedure: as §1

MFM-223 [5] = experiment: as above
Procedure: as §1

CAL-120 [6] = experiment: as above
Procedure: as §1

HCC1143 [7] = experiment: as above
Procedure: as §1

CAL-148 [8] = experiment: as above
Procedure: as §1

Hs578T [9] = experiment: as above
Procedure: as §1

MDA-MB-436 [10] = experiment: as above
Procedure: as §1

MDA-MB-468 [11] = experiment: as above
Procedure: as §1

HDQ-P1 [12] = experiment: as above
Procedure: as §1

CAL-85-1 [13] = experiment: as above
Procedure: as §1

MDA-MB-231 [14] = experiment: as above
Procedure: as §1

DU-4475 [15] = experiment: as above
Procedure: as §1

SK-BR-3 = experiment: as above
Procedure: as §1

BT-474 [16] = experiment: as above
Procedure: as §1

HCC1937 [17] = experiment: as above
Procedure: as §1

CAL-51 [18] = experiment: as above
Procedure: as §1

MDA-MB-453 [19] = experiment: normalised response (% of control), CellTox Green; higher = less cell death (100 = DMSO, 0 = benzethonium chloride kill control)
Method in brief: (§2)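 Values are normalised signals, each belonging to one concentration of the series. Breast cancer cells (20 µl suspension) were seeded into 384-well plates with compound at 5 concentrations in 10-fold steps over a compound-specific 10,000-fold range and incubated 72 h. Readouts were CellTox Green fluorescence (485/520 nm), then CellTiter-Glo luminescence after 10 min at room temperature, with each plate set to 0.1 % DMSO as 100 and a positive kill control as 0.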

HCC1599 [20] = experiment: as above
Method in brief: as §2

BT-549 [21] = experiment: as above
Method in brief: as §2

MCF-10A [22] = experiment: as above
Method in brief: as §2

MFM-223 [23] = experiment: as above
Method in brief: as §2

CAL-120 [24] = experiment: as above
Method in brief: as §2

HCC1143 [25] = experiment: as above
Method in brief: as §2

CAL-148 [26] = experiment: as above
Method in brief: as §2

Hs578T [27] = experiment: as above
Method in brief: as §2

MDA-MB-436 [28] = experiment: as above
Method in brief: as §2

MDA-MB-468 [29] = experiment: as above
Method in brief: as §2

HDQ-P1 [30] = experiment: as above
Method in brief: as §2

CAL-85-1 [31] = experiment: as above
Method in brief: as §2

MDA-MB-231 [32] = experiment: as above
Method in brief: as §2

DU-4475 [33] = experiment: as above
Method in brief: as §2

BT-474 [34] = experiment: as above
Method in brief: as §2

CAL-51 [35] = experiment: as above
Method in brief: as §2

HCC1937 [36] = experiment: as above
Method in brief: as §2

| Structure (SMILES) | normalised response (MDA-MB-453 [1]) | normalised response (HCC1599 [2]) | normalised response (BT-549 [3]) | normalised response (MCF-10A [4]) | normalised response (MFM-223 [5]) | normalised response (CAL-120 [6]) | normalised response (HCC1143 [7]) | normalised response (CAL-148 [8]) | normalised response (Hs578T [9]) | normalised response (MDA-MB-436 [10]) | normalised response (MDA-MB-468 [11]) | normalised response (HDQ-P1 [12]) | normalised response (CAL-85-1 [13]) | normalised response (MDA-MB-231 [14]) | normalised response (DU-4475 [15]) | normalised response (SK-BR-3) | normalised response (BT-474 [16]) | normalised response (HCC1937 [17]) | normalised response (CAL-51 [18]) | normalised response (MDA-MB-453 [19]) | normalised response (HCC1599 [20]) | normalised response (BT-549 [21]) | normalised response (MCF-10A [22]) | normalised response (MFM-223 [23]) | normalised response (CAL-120 [24]) | normalised response (HCC1143 [25]) | normalised response (CAL-148 [26]) | normalised response (Hs578T [27]) | normalised response (MDA-MB-436 [28]) | normalised response (MDA-MB-468 [29]) | normalised response (HDQ-P1 [30]) | normalised response (CAL-85-1 [31]) | normalised response (MDA-MB-231 [32]) | normalised response (DU-4475 [33]) | normalised response (BT-474 [34]) | normalised response (CAL-51 [35]) | normalised response (HCC1937 [36]) |
| --- | --- | --- | --- | --- | --- | --- | --- | --- | --- | --- | --- | --- | --- | --- | --- | --- | --- | --- | --- | --- | --- | --- | --- | --- | --- | --- | --- | --- | --- | --- | --- | --- | --- | --- | --- | --- | --- |
| Cc1sc2c(c1C)C(c1ccc(Cl)cc1)=N[C@@H](CC(=O)OC(C)(C)C)c1nnc(C)n1-2 [(+)JQ1] (100 nM) | 94.6% | 97.3% | 76% | 84.6% | 95% | 97.9% | 99.5% | 117% | 73.4% | 102% | 89.3% | 89.5% | 88.8% | 94.8% | 93.5% | 92.8% | 86.2% | 85% | 106% | 108% | 105% | 95.7% | 111% | 103% | 82.9% | 111% | 98.3% | 104% | 68.7% | 131% | 96.3% | 83.9% | 96.2% | 101% | 79% | 101% |  |
| CC(=O)N(O)CCCCCNC(=O)CCC(=O)N(O)CCCCCNC(=O)CCC(=O)N(O)CCCCCN [Deferoxamine] (100 nM) | 84.4% | 102% | 100% | 96.8% | 93.5% | 99.2% | 99.1% | 88.7% | 101% | 102% | 95.8% | 101% | 95% | 93.2% | 93.9% | 88.2% | 95% | 89.7% | 96.2% | 102% | 92.5% | 97.8% | 90.1% | 102% | 103% | 102% | 92.4% | 94.9% | 95.5% | 114% | 96.1% | 104% | 78.7% | 98.1% | 94.5% | 104% |  |
| Oc1ncnc2[nH]ncc12 [Allopurinol] (100 nM) | 110% | 111% | 91.4% | 104% | 109% | 103% | 106% | 104% | 105% | 99.5% | 107% | 101% | 104% | 105% | 106% | 105% | 101% | 101% | 86.8% | 102% | 104% | 94.6% | 89.3% | 91.8% | 103% | 113% | 86.5% | 103% | 102% | 92.2% | 103% | 109% | 112% | 101% | 98.1% | 98.8% |  |
| CC1(C)CNc2cc(NC(=O)c3cccnc3NCc3ccncc3)ccc21 [Motesanib] (100 nM) | 99.8% | 114% | 99.7% | 92.5% | 93.8% | 99.9% | 95.4% | 86.2% | 96.3% | 96.9% | 91.8% | 99.5% | 89.5% | 101% | 102% | 92.1% | 101% | 96.8% | 107% | 105% | 103% | 106% | 100% | 92.8% | 95.2% | 100% | 94.2% |  | 91.1% | 93% | 111% | 110% | 101% | 97.9% | 99% | 107% | 99.2% |
| C[C@]12CC[C@@H]3c4ccc(OC(=O)N(CCCl)CCCl)cc4CC[C@H]3[C@@H]1CC[C@@H]2O [Estramustine] (100 nM) | 83.1% | 103% | 104% | 88.2% | 91.4% | 101% | 100% | 76.8% | 93% | 98.4% | 95.2% | 102% | 94.6% | 95.4% | 93.3% | 85.3% | 98.1% | 95.2% | 86.7% | 103% | 91.3% | 103% | 83.8% | 99.3% | 100% | 84.8% | 102% |  | 83.2% | 97.9% | 89.7% | 95.6% |  | 96.8% | 95.8% | 81% | 70.5% |
| CC1=C2C[C@H]3[C@@H](CC=C4C[C@@H](O)CC[C@@]43C)[C@@H]2CC[C@]12O[C@@H]1C[C@H](C)CN[C@H]1[C@H]2C [Cyclopamine] (100 nM) | 122% | 100% | 95% | 106% | 109% | 104% | 104% | 114% | 105% | 99.7% | 108% | 99.9% | 106% | 109% | 109% | 112% | 101% | 97.2% | 99.3% | 97.4% | 104% | 102% | 94.2% | 107% | 99.6% | 115% | 104% | 95.4% | 86% | 88.8% | 68.2% | 94.5% | 102% | 102% | 101% | 85.7% |  |
| COc1cc(F)c(F)c(Nc2ccc(I)cc2F)c1NS(=O)(=O)C1(C[C@H](O)CO)CC1 [Refametinib] (100 nM) | 97.6% | 99.6% | 105% | 37.9% | 88.9% | 87.7% | 89.1% | 87.2% | 87.4% | 91.6% | 82.2% | 68.6% | 89.7% | 83.6% | 35.1% | 90.6% | 81% | 88% | 88.3% | 101% | 93.7% | 102% | 93.4% | 97.7% | 92.4% | 95.8% | 58.6% | 103% |  |  | 81.3% | 86.7% |  | 84% | 97.4% | 79.7% | 92.5% |
| CC[C@@H]1C(=O)OC[C@@H]1Cc1cncn1C [Pilocarpine] (400 nM) | 96.1% | 85.9% | 102% | 101% | 101% | 96.6% | 98.7% | 86% | 97.8% | 88.3% | 95.3% | 98.3% | 97% | 94.1% | 97.7% | 89.7% | 94.5% | 96.7% | 63.4% | 93.6% | 99.5% | 93.4% | 98.6% | 99.6% | 98.8% | 104% | 97.1% |  | 70% | 73.4% | 91% | 110% | 106% | 95.8% | 98.4% | 91.1% | 70.4% |
| CC(=O)c1c(C)c2cnc(Nc3ccc(N4CCNCC4)cn3)nc2n(C2CCCC2)c1=O [Palbociclib] (100 nM) | 105% | 94.4% | 97.9% | 85.8% | 79.7% | 86.4% | 96.5% | 85.7% | 103% | 96.4% | 85% | 103% | 97.3% | 95.9% | 98% | 86.3% | 85.7% | 95.7% | 72.8% | 107% | 95.2% | 103% |  | 101% | 98.7% | 55.5% | 103% | 104% | 77% |  | 101% | 102% | 103% | 98.8% | 99.6% | 110% | 82% |
